Measured values reported in patent US6524842B1, “Biodegradation of gasoline oxygenates” (Envirogen, Inc., priority 2000, dated 2003).
Read-outs that look alike come from different tables or passages of the source.

Columns and labels:
strain ENV735 [1] = experiment: Growth substrates for ENV735; type: cell-based, Hydrogenophaga flava
strain ENV735 [2] = experiment: MTBE degradation assays with ENV735 cells; type: cell-based, Hydrogenophaga flava
ENV 735 = experiment: Membrane bioreactor (MBR1, MBR2) MTBE degradation; parameters: species or system Hydrogenophaga flava
Procedure: A calculated solids retention time (SRT) of 160 days was maintained by removing a portion of the reactor contents each day. The dissolved oxygen concentration in the reactor was maintained at ˜2 mg/L by adding air.

[3] = system: ENV 735-containing culture from MBR1; experiment: Fluid bed bioreactor (FBR) MTBE degradation; conditions: flow rate increased 3-fold, 1 hr HRT
Procedure: A laboratory-scale FBR was constructed from a glass column with Teflon and stainless steel tubing and fittings to minimize abiotic losses. […] The carbon was fluidized to an expanded bed height of 125% of the original bed height by using a gear pump in the recycle line. Contaminated water was fed at a rate of 5.6 to 17 mL/min using a peristaltic pump, corresponding to hydraulic retention times (HRTs) of approximately 3 to 1 h, respectively. The HRT was calculated based on expanded bed volume and feed flow rate (assumes no significant biodegradation occurred in other wetted areas of the reactor).

[4] = system: hydrogen-oxidizing microorganism; experiment: Bioreactor laboratory testing, continuous operation; conditions: hydraulic retention time of 2.5 hr to 3 days
Text: Batch operation can be initiated by inoculating the reactor with the hydrogen-oxidizing microorganism and then adding tertiary butyl alcohol, for example, to a final concentration of from 0.1 to 1% (v/v). The organisms are aerated and allowed to grow until no tertiary butyl alcohol remains in the culture medium. Additional tertiary butyl alcohol can then be added to further increase biomass levels. After sufficient biomass is obtained, a small amount of contaminant (e.g., MTBE) can be added to acclimate the organisms. Additional contaminant can be added after depletion of the prior addition. When sufficient degradation rates are achieved, the reactor can be operated in a continuous mode. Preferably, during continuous and batch operation, the reactor should be operated at a temperature of between 25 and 37° C., with the pH in the range of 6.8 to 7.2, and a dissolved oxygen concentration >2 mg/L. Hydraulic retention time within the reactor should be adjusted to allow sufficient time for degradation of the target compound to below treatment standards. […] Furthermore, the volatile suspended solids (biomass) concentration should be maintained at a relatively high concentration, preferably from 1,000 to 30,000 mg/l depending on the contaminant loading rate.

[5] = system: anaerobic sediment samples; conditions: the one active anaerobic sediment sample; cited from earlier work
strain ENV735 [6] = experiment: TBA degradation by ENV735 cells; type: cell-based, Hydrogenophaga flava
strain ENV735 [7] = experiment: [14C]MTBE mineralization to 14CO2; type: cell-based, Hydrogenophaga flava; conditions: YE-grown cells, 10 mg/L, within 24 hr
Text: Cells were collected by centrifugation, washed, and suspended in BSM to an OD550 of 1.0. […] At timed intervals air was passed through the samples and organic compounds and ^14CO2 in the effluent air were trapped (Marinucci, A. C. and R. Bartha, “Apparatus for monitoring the mineralization of volatile ^14C-labeled compounds”, Applied and Environmental Microbiology, 38:1020-1022, (1979)). Oxosol C14 (National Diagnostics, Atlanta, Ga.) served as a CO2 trapping solution and liquid scintillation cocktail. The amount of ^14CO2 produced was quantified by liquid scintillation counting.

[8] = growth of ENV735 on the substrate

Question: For CCCO [1-Propanol], which Growth (strain ENV735 [1]; [8]) is on record?
Answer: +/−

Question: With CC(C)(O)C(=O)O [2-Hydroxy isobutyric acid] as the molecule, how does the Growth (strain ENV735 [1]; [8]) read?
Answer: +

Question: For CC(C)O [2-Propanol], which Growth (strain ENV735 [1]; [8]) is on record?
Answer: −

Question: Which Growth (strain ENV735 [1]; [8]) does the source give for N[C@@H](CCC(=O)O)C(=O)O [Glutamic acid] here?
Answer: +/−

Question: What does the source list for [HH] [H2, hydrogen]?
Answer: Growth on H2 as a sole energy source (strain ENV735 [1]; strain ENV735): grew readily; effect of presence of H2 on MTBE degradation (strain ENV735 [2]; strain ENV735): not inhibited

Question: Which Growth (strain ENV735 [1]; [8]) does the source give for CCC(C)C [Iso-Pentane] here?
Answer: −

Question: Which Growth (strain ENV735 [1]; [8]) does the source give for CC(O)C(=O)O (centres unmarked) [Lactic acid] here?
Answer: +/−

Question: For COC(C)(C)C [MTBE, methyl-tert-butyl ether], which Growth (strain ENV735 [1]; [8]) is on record?
Answer: +

Question: What about the “initial maximum MTBE oxidation rate” value (strain ENV735 [2]; 30° C., YE-grown cells, 25 mg/L MTBE) of the same molecule?
Answer: 86 nmole MTBE/min./mg total cell protein

Question: What about the MTBE removal rate (ENV 735; MBR1, 1 d HRT, influent ˜1000 mg/L) of the same molecule?
Answer: 42 mg/L/h

Question: And the MTBE removal rate (ENV 735; MBR2, influent ˜2000 mg/L)?
Answer: 28 mg/L/h

Question: And the “MTBE stripping as share of MTBE loss” value (ENV 735; effluent air of MBRs)?
Answer: < 5%

Question: And the “removal of added MTBE” value [3]?
Answer: > 90%

Question: And the “degradation of influent MTBE” value [4]?
Answer: > 90%

Question: What about the “transformation of MTBE” value [5] of the same molecule?
Answer: about 50%

Question: With CO [Methanol] as the molecule, how does the Growth (strain ENV735 [1]; [8]) read?
Answer: −

Question: With CCC [Propane] as the molecule, how does the Growth (strain ENV735 [1]; [8]) read?
Answer: +/−

Question: With CCC(=O)O [Propionic acid] as the molecule, how does the Growth (strain ENV735 [1]; [8]) read?
Answer: −

Question: With CC(=O)C(=O)O [Pyruvic acid] as the molecule, how does the Growth (strain ENV735 [1]; [8]) read?
Answer: +/−

Question: For CC(=O)[O-].[Na+] [Sodium acetate], which Growth (strain ENV735 [1]; [8]) is on record?
Answer: +/−

Question: With OC[C@H]1O[C@@](CO)(O[C@H]2O[C@H](CO)[C@@H](O)[C@H](O)[C@H]2O)[C@@H](O)[C@@H]1O [Sucrose] as the molecule, how does the Growth (strain ENV735 [1]; [8]) read?
Answer: +++

Question: What does the source list for CC(C)(C)O [TBA, tertiary-butyl alcohol]?
Answer: Growth (strain ENV735 [1]): +++; initial TBA degradation rate (strain ENV735 [6]): 30 nmoles TBA/min./mg cell protein

Question: Which “added [14C]MTBE recovered as 14CO2” value (strain ENV735 [7]) does the source give for COC(C)(C)C [[^14C]MTBE] here?
Answer: Approximately 80%

Question: For Casein, which Growth (strain ENV735 [1]; [8]) is on record?
Answer: +
